Values after ≈ are worked out from the molar mass of the structure shown.
Columns and labels:
[1] = system: Hela (human cervical cancer cell); experiment: MTT growth inhibition of human solid tumor cells, 72 h; assay type: cell-based; conditions: Homo sapiens, HeLa, 72 h; for IC50: read-out: IC50; for IC90: read-out: IC90
Procedure, shortened: (§1)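 Viability was read by MTT after 72 h of compound exposure at 37°C, 5% CO2, in cells seeded at 4000 per well and pre-grown for 24 h in DMEM high glucose plus 10% FBS. Test solutions came from a 10 mg/mL DMSO stock diluted in medium.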

[2] = system: CaES-17 (esophageal cancer cell); experiment: as above; assay type: cell-based; conditions: Homo sapiens, CaEs17, CaEs-17, 72 h; for IC50: read-out: IC50; for IC90: read-out: IC90
Procedure, shortened: as §1

[3] = system: CNE (nasopharyngeal carcinoma cell); experiment: as above; assay type: cell-based; conditions: Homo sapiens; for IC50: read-out: IC50; for IC90: read-out: IC90
Procedure, shortened: as §1

PC-3 (prostate cancer) = experiment: as above; assay type: cell-based; conditions: Homo sapiens, PC-3, 72 h; for IC50: read-out: IC50; for IC90: read-out: IC90
Procedure, shortened: as §1

[4] = system: PANC-1 (pancreatic cancer); experiment: as above; assay type: cell-based; conditions: Homo sapiens, PANC-1, 72 h; for IC50: read-out: IC50; for IC90: read-out: IC90
Procedure, shortened: as §1

MG63 (osteosarcoma) = experiment: as above; assay type: cell-based; conditions: Homo sapiens, MG-63, 72 h; for IC50: read-out: IC50; for IC90: read-out: IC90
Procedure, shortened: as §1

[5] = system: Hep G2 (human liver cancer cell); experiment: as above; assay type: cell-based; conditions: Homo sapiens, HepG2, Hep G2, 72 h; for IC50: read-out: IC50; for IC90: read-out: IC90
Procedure, shortened: as §1

[6] = system: U87 MG (malignant glioma cell); experiment: as above; assay type: cell-based; conditions: Homo sapiens, U-87 MG, U87-MG, 72 h; for IC50: read-out: IC50; for IC90: read-out: IC90
Procedure, shortened: as §1

[7] = system: RKO (human colon adenocarcinoma cell); experiment: as above; assay type: cell-based; conditions: Homo sapiens; for IC50: read-out: IC50; for IC90: read-out: IC90
Procedure, shortened: as §1

[8] = system: Hep-2 (laryngeal carcinoma); experiment: as above; assay type: cell-based; conditions: Homo sapiens, HEp-2, 72 h; for IC50: read-out: IC50; for IC90: read-out: IC90
Procedure, shortened: as §1

A549 (human lung cancer) = experiment: as above; assay type: cell-based; conditions: Homo sapiens, A549, 72 h; for IC50: read-out: IC50; for IC90: read-out: IC90
Procedure, shortened: as §1

[9] = system: SK-OV-3 (ovarian cancer cell); experiment: as above; assay type: cell-based; conditions: Homo sapiens, SK-OV-3, 72 h; for IC50: read-out: IC50; for IC90: read-out: IC90
Procedure, shortened: as §1

[10] = system: Becap37 (human breast cancer cell); experiment: as above; assay type: cell-based; conditions: Homo sapiens, Becap-37, 72 h; for IC50: read-out: IC50; for IC90: read-out: IC90
Procedure, shortened: as §1

[11] = system: MGC 803 (human gastric cancer cell); experiment: as above; assay type: cell-based; conditions: Homo sapiens, MGC-803, 72 h; for IC50: read-out: IC50; for IC90: read-out: IC90
Procedure, shortened: as §1

[12] = system: RPMI8226 (multiple myeloma); experiment: MTT growth inhibition of multiple myeloma cells, 72 h; assay type: cell-based, human; conditions: Homo sapiens, RPMI 8226, 72 h; for IC50: read-out: IC50; for IC90: read-out: IC90
Procedure, shortened: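 Viability read by MTT after 72 h at 37° C, 5% CO2: compounds from a 10 mg/mL DMSO stock were diluted in medium and added at several concentrations to 6000 RPMI8226 cells per well in 1640 medium plus 10% FBS.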

[13] = system: Jurkat (acute lymphoblastic leukemia, ALL); experiment: MTT growth inhibition of leukemia cells, 72 h; assay type: cell-based, human; conditions: Homo sapiens, 72 h; for IC50: read-out: IC50; for IC90: read-out: IC90
Procedure, shortened: (§2)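 Seed 6000 cells per well in serum-supplemented RPMI-1640 (10% FBS); next day add derivatives at several concentrations, diluted from a 10 mg/mL DMSO stock; incubate 72 h at 37 °C, 5% CO2; quantify surviving cells with MTT.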

[14] = system: H9 (acute lymphoblastic leukemia, ALL); experiment: MTT growth inhibition of leukemia cells, 72 h; assay type: cell-based, human; conditions: Homo sapiens, H9, 72 h; for IC50: read-out: IC50; for IC90: read-out: IC90
Procedure, shortened: as §2

[15] = system: Kasumi-1 (acute myeloid leukemia M2 type, AML-M2); experiment: MTT growth inhibition of leukemia cells, 72 h; assay type: cell-based, human; conditions: Homo sapiens, Kasumi-1, 72 h; for IC50: read-out: IC50; for IC90: read-out: IC90
Procedure, shortened: as §2

[16] = system: K562/adr (drug-resistant, chronic myeloid leukemia, CML); experiment: MTT growth inhibition of leukemia cells, 72 h; assay type: cell-based, human; conditions: Homo sapiens, K562/Adr; for IC50: read-out: IC50; for IC90: read-out: IC90
Procedure, shortened: as §2

[17] = system: NB4 (acute promyelocytic leukemia, AML); experiment: MTT growth inhibition of leukemia cells, 72 h; assay type: cell-based, human; conditions: Homo sapiens, NB4, 72 h; for IC50: read-out: IC50; for IC90: read-out: IC90
Procedure, shortened: as §2

Row | IC50 [1] [µg/mL] | IC90 [1] [µg/mL] | IC50 [2] [µg/mL] | IC90 [2] [µg/mL] | IC50 [3] [µg/mL] | IC90 [3] [µg/mL] | IC50 (PC-3 (prostate cancer)) [µg/mL] | IC90 (PC-3 (prostate cancer)) [µg/mL] | IC50 [4] [µg/mL] | IC90 [4] [µg/mL] | IC50 (MG63 (osteosarcoma)) [µg/mL] | IC90 (MG63 (osteosarcoma)) [µg/mL] | IC50 [5] [µg/mL] | IC90 [5] [µg/mL] | IC50 [6] [µg/mL] | IC90 [6] [µg/mL] | IC50 [7] [µg/mL] | IC90 [7] [µg/mL] | IC50 [8] [µg/mL] | IC90 [8] [µg/mL] | SMILES | also measured
1 | 7.49 (≈ 18.7 µM) | > 16 | ≥ 19.3 | > 16 | 11.8 (≈ 29.4 µM) | > 16 | 10.3 (≈ 25.8 µM) | 24.5 (≈ 60.9 µM) | 1.57 (≈ 3.91 µM) | 16.7 (≈ 41.6 µM) | 4.76 (≈ 11.9 µM) | > 16 | 13.5 (≈ 33.6 µM) | > 16 | 6.5 (≈ 16.2 µM) | > 16 | 3.42 (≈ 8.52 µM) | > 16 | 9.23 (≈ 23 µM) | > 16 | Cc1c(CNCC2CCCCC2)oc2c1C(=O)C(=O)c1c-2ccc2c(C)cccc12 [BS-TA-B06] | IC50 (A549 (human lung cancer)): 1.59 µg/mL (≈ 3.96 µM); IC90 (A549 (human lung cancer)): 10 µg/mL (≈ 24.9 µM); IC50 [9]: > 16 µg/mL; IC90 [9]: > 16 µg/mL; IC50 [10]: 5.9 µg/mL (≈ 14.7 µM); IC90 [10]: > 16 µg/mL; IC50 [11]: 7.82 µg/mL (≈ 19.5 µM); IC90 [11]: > 16 µg/mL; IC50 [12]: 6.16 µg/mL (≈ 15.3 µM); IC90 [12]: 16 µg/mL (≈ 39.8 µM); IC50 [13]: 5.25 µg/mL (≈ 13.1 µM); IC90 [13]: 16 µg/mL (≈ 39.8 µM); IC50 [14]: 3.2 µg/mL (≈ 7.97 µM); IC90 [14]: 14.1 µg/mL (≈ 35.1 µM); IC50 [15]: 0.57 µg/mL (≈ 1.42 µM); IC90 [15]: 1.73 µg/mL (≈ 4.31 µM); IC50 [16]: 0.81 µg/mL (≈ 2.02 µM); IC90 [16]: 1.8 µg/mL (≈ 4.48 µM); IC50 [17]: 2.13 µg/mL (≈ 5.31 µM); IC90 [17]: 7.29 µg/mL (≈ 18.2 µM)
2 | 6.86 (≈ 19.1 µM) | 18.5 (≈ 51.4 µM) | 9.16 (≈ 25.5 µM) | 19.7 (≈ 54.8 µM) | 9 (≈ 25 µM) | > 16 | 7.05 (≈ 19.6 µM) | 16 (≈ 44.5 µM) | 1.33 (≈ 3.7 µM) | 8.21 (≈ 22.8 µM) | 8.14 (≈ 22.6 µM) | > 16 | 8.46 (≈ 23.5 µM) | > 16 | 10.1 (≈ 28 µM) | 21.2 (≈ 59 µM) | 0.93 (≈ 2.59 µM) | 17 (≈ 47.4 µM) | 9.45 (≈ 26.3 µM) | > 16 | Cc1c(CNCC2CC2)oc2c1C(=O)C(=O)c1c-2ccc2c(C)cccc12 [BS-TA-B07] | IC50 (A549 (human lung cancer)): 5.98 µg/mL (≈ 16.6 µM); IC90 (A549 (human lung cancer)): 21.9 µg/mL (≈ 61.1 µM); IC50 [9]: > 16 µg/mL; IC90 [9]: > 16 µg/mL; IC50 [10]: 5.23 µg/mL (≈ 14.6 µM); IC90 [10]: 14.3 µg/mL (≈ 39.9 µM); IC50 [11]: 6.9 µg/mL (≈ 19.2 µM); IC90 [11]: 17.1 µg/mL (≈ 47.7 µM); IC50 [12]: 3.46 µg/mL (≈ 9.63 µM); IC90 [12]: 10.2 µg/mL (≈ 28.3 µM); IC50 [13]: 3.11 µg/mL (≈ 8.65 µM); IC90 [13]: 9.52 µg/mL (≈ 26.5 µM); IC50 [14]: 2.9 µg/mL (≈ 8.07 µM); IC90 [14]: 7.5 µg/mL (≈ 20.9 µM); IC50 [15]: 1.07 µg/mL (≈ 2.98 µM); IC90 [15]: 3.86 µg/mL (≈ 10.7 µM); IC50 [16]: 3.22 µg/mL (≈ 8.96 µM); IC90 [16]: 6.38 µg/mL (≈ 17.8 µM); IC50 [17]: 1.35 µg/mL (≈ 3.76 µM); IC90 [17]: 3.74 µg/mL (≈ 10.4 µM)
3 | 15.6 (≈ 43 µM) | > 16 | > 16 | > 16 | > 16 | > 16 | > 16 | > 16 | 0.88 (≈ 2.43 µM) | 5.82 (≈ 16.1 µM) | > 16 | > 16 | > 16 | > 16 | > 16 | > 16 | 5.47 (≈ 15.1 µM) | > 16 | 15.8 (≈ 43.6 µM) | > 16 | CCCCNCc1oc2c(c1C)C(=O)C(=O)c1c-2ccc2c(C)cccc12 [BS-TA-B10] | IC50 (A549 (human lung cancer)): 1.28 µg/mL (≈ 3.54 µM); IC90 (A549 (human lung cancer)): 6 µg/mL (≈ 16.6 µM); IC50 [9]: > 16 µg/mL; IC90 [9]: > 16 µg/mL; IC50 [10]: > 16 µg/mL; IC90 [10]: > 16 µg/mL; IC50 [11]: > 16 µg/mL; IC90 [11]: > 16 µg/mL; IC50 [12]: 15.8 µg/mL (≈ 43.8 µM); IC90 [12]: > 16 µg/mL; IC50 [13]: > 16 µg/mL; IC90 [13]: > 16 µg/mL; IC50 [14]: 6 µg/mL (≈ 16.6 µM); IC90 [14]: > 16 µg/mL; IC50 [15]: 0.4 µg/mL (≈ 1.11 µM); IC90 [15]: 0.92 µg/mL (≈ 2.55 µM); IC50 [16]: 0.76 µg/mL (≈ 2.1 µM); IC90 [16]: 1.8 µg/mL (≈ 4.98 µM); IC50 [17]: 5.79 µg/mL (≈ 16 µM); IC90 [17]: 15.4 µg/mL (≈ 42.7 µM)

Source: patent US9328083B2, “2-aminated methylene or 2-esterified methylene tanshinone derivatives, and preparation method and application thereof” (HANGZHOU BENSHENG PHARMACEUTICAL CO., LTD., priority 2011, dated 2016)
